According to patent publication US10206894B2, “Compounds for use in treatment of mucositis” (priority 2011, dated 2019):
Like-named read-outs stand apart in the source and are kept apart here.

Test system: radiation-induced oral mucositis, left buccal cheek pouch
Type: in vivo
Conditions: for mean daily mucositis scores vs untreated control (Mann-Whitney Rank-sum), efficacy: topical three times per day
Source text: In the irradiated hamster cheek pouch model of oral mucositis, the hamster cheek pouch is everted and irradiated to produce a localized mucositis. The progression and resolution of mucositis in the hamster model is very similar to that observed in the human condition and the model has been validated clinically with respect to dosing schedules of therapeutic agents (Murphy et al., Clin. Cancer Res., 2008, 14, 4292-4297; Alvarez et al., Clin. Cancer Res., 2003, 9, 3454-3461; and Schuster et al., J. Clin. Oncol., 2006, 24, 6537). Briefly, on day 0, all animals were given an acute radiation dose directed to their left buccal cheek pouch. Test articles were applied topically to the left pouch three times per day from day 0 to day 20 and mucositis was evaluated clinically starting on day 6, and continued on alternate days until […]. Study endpoints were mucositis score, weight change and survival. Mucositis was scored visually by comparison to a validated photographic scale. The scale ranges from 0 for normal, to 5 for severe ulceration. The clinical mucositis score of 3 in hamsters indicates the presence of an ulcer. In terms of the syndrome, it is believed that the dose-limiting chemotherapeutic- or radiation-induced pain is associated with frank ulceration; therefore a compound that prevents ulceration in the model might have utility in the clinical setting.
To evaluate mucositis severity, animals were anesthetized with an inhalation anesthetic, and the left cheek pouch everted. Mucositis was scored visually by comparison to a validated photographic scale. The scale ranges from 0 for normal, to 5 for severe ulceration. In descriptive terms, this scale is defined as follows: […]
A score of 1-2 is considered to represent a mild stage of injury, whereas a score of 3-5 is considered to indicate moderate to severe mucositis. In terms of the syndrome, it is believed that the dose-limiting chemotherapeutic- or radiation-induced pain is associated with frank ulceration; therefore a compound that prevents ulceration in the model might have utility in the clinical setting. In the hamster model, a clinical mucositis score of 3 indicates the presence of an ulcer and the duration of scores of 3 or greater is used as a primary measurement of efficacy in mucositis treatment. Ulceration is the point in the development of mucositis where the physical integrity of the oral mucosa is breached. In the clinic, a patient presenting with severe oral ulcerations may require hospitalization for analgesic, narcotic and/or antibiotic therapies or fluid support.
On day 0, all animals were given an acute radiation dose directed to their left buccal cheek pouch. This was accomplished by anesthetizing the animals and everting the left buccal pouch, while protecting the rest of the animals with a lead shield. Test agents were applied topically to the left buccal pouch three times per day from day 0 to day 20. Mucositis was evaluated clinically starting on day 6, and continued on alternate days until day 28. Study endpoints were mucositis score, weight change and survival. Mucositis was scored visually by comparison to a validated photographic scale. No treatment-related deaths were recorded throughout the study. The mean daily percent weight gains were similar in all groups and there were no apparent toxicities in any of the test agent treatment groups. Differences between the ulcerative severity in controls and the treated groups were assessed in two ways. First, mean daily mucositis scores for each group at each time-point were compared with the untreated control group using the Mann-Whitney Rank-sum analysis. […] At 0.3 mg/ml, efficacy was partial early in the treatment period.
Alternately, ulcerative severity differences between control and treatment groups were assessed by the comparison of the number of days with an ulcer (i.e., a score of 3 or higher) using a chi-squared (χ2) test.

`N=C(N)NCCCCC(=O)Nc1cc(C(F)(F)F)cc(NC(=O)c2cc(C(=O)Nc3cc(C(F)(F)F)cc(NC(=O)CCCCNC(=N)N)c3OC3CCNC3)ncn2)c1OC1CCNC1` (centres unmarked) [Compound X] was tested, and the “mean daily mucositis scores vs untreated control (Mann-Whitney Rank-sum), efficacy” value (0.3 mg/ml, early in the treatment period) was “partial”, the “mean daily mucositis scores vs untreated control (Mann-Whitney Rank-sum), efficacy” value (1, 3 and 10 mg/ml groups, by Day 12 through Day 28) was “robust efficacy” and the “mucositis scores, number of days with an ulcer (score of 3 or higher), chi-squared test vs control” value (1, 3 and 10 mg/ml/dose, p<0.001) was “statistically significant improvements”. The “treatment days with a clinical score ≥3” value (1, 3 and 10 mg/ml/dose, vehicle control 42.7%) was < 5%, the “% reduction of animal days with OM scores ≥ 3” value (Acute Radiation) was 90.6%-95.3% and the “impact of Kleptose on the response (mucositis scores)” value (Kleptose in the vehicle or with 1 mg/kg Compound X) was “did not significantly impact the response”. The “daily mean mucositis scores and number of days animals exhibited ulceration” value (acute radiation model, oral rinse 3 times daily, 28 day treatment regimen) was “significantly reduced” and the “adverse findings in weight gain, general behavior in the home cage, or clinical signs” value (hamster, in vivo) was “no adverse findings”.
